Reference: US10227323B2, “Glucosylceramide synthase inhibitors for the treatment of diseases” (BIOMARIN PHARMACEUTICAL INC., priority 2013, dated 2019)

Target: T1, GCS (Canis lupus familiaris, UniProt A0A8I3MXG6)
T1 sequence (A0A8I3MXG6 1-394): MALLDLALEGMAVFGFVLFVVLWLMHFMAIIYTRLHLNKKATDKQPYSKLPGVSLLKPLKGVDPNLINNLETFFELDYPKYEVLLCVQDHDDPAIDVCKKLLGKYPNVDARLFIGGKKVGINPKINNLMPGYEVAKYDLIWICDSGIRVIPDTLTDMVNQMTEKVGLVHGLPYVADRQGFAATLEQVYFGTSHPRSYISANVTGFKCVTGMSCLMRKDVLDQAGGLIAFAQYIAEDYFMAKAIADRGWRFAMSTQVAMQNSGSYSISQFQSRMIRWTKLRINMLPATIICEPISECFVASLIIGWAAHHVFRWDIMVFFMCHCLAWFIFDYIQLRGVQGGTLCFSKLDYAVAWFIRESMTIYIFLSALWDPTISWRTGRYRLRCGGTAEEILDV
Assay: Assay 1: GCS Enzymatic Assay (MDCK cell lysate, C6-NBD-Ceramide, LC/MS)
Assay type: biochemical, canine
Conditions: Table 2; data without asterisk; read-out: IC50 (nM) generated from Assay 1
Procedure, shortened: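 LC/MS/MS measurement of glucosylceramide and NBD-ceramide after a 1 h, 37 °C reaction with 100 μM UDP-glucose and 10 μM C6-NBD-ceramide gave IC50s or percent inhibition.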

| SMILES | IC50 |
| --- | --- |
| O=C(N[C@H](CN1CCCC1)[C@H](O)c1cc(F)c2c(c1)OCCO2)C(=O)c1ccc(N2CCCC2)cc1 [Example 273, N-((1R,2R)-1-(8-fluoro-2,3-dihydrobenzo[b][1,4]dioxin-6-yl)-1-hydroxy-3-(pyrrolidin-1-yl)propan-2-yl)-2-oxo-2-(4-(pyrrolidin-1-yl)phenyl)acetamide] | < 50 nM |
| O=C(N[C@H](CN1CCCC1)[C@H](O)c1ccc(OC2CC2)c(Cl)c1)C(=O)c1ccc(-c2ccc(C(F)(F)F)cc2)cc1 [Example 274, N-((1R,2R)-1-(3-chloro-4-cyclopropoxyphenyl)-1-hydroxy-3-(pyrrolidin-1-yl)propan-2-yl)-2-oxo-2-(4′-(trifluoromethyl)-[1,1′-biphenyl]-4-yl)acetamide] | < 50 nM |
| O=C(N[C@H](CN1CCCC1)[C@H](O)c1cc(F)c2c(c1)OCCO2)C(=O)c1ccc(-c2ccc3c(cnn3C3CC3)c2)cc1 [Example 275, 2-(4-(1-cyclopropyl-1H-indazol-5-yl)phenyl)-N-((1R,2R)-1-(8-fluoro-2,3-dihydrobenzo[b][1,4]dioxin-6-yl)-1-hydroxy-3-(pyrrolidin-1-yl)propan-2-yl)-2-oxoacetamide] | < 50 nM |
| O=C(N[C@H](CN1CCCC1)[C@H](O)c1cc(Cl)c2c(c1)OCCO2)C(=O)c1ccc(-c2ccc3c(cnn3C3CC3)c2)cc1 [Example 276, N-((1R,2R)-1-(8-chloro-2,3-dihydrobenzo[b][1,4]dioxin-6-yl)-1-hydroxy-3-(pyrrolidin-1-yl)propan-2-yl)-2-(4-(1-cyclopropyl-1H-indazol-5-yl)phenyl)-2-oxoacetamide] | < 50 nM |
| O=C(N[C@H](CN1CCCC1)[C@H](O)c1ccc(OC2CC2)c(Cl)c1)C(=O)c1ccc(-c2ccc3c(cnn3C3CC3)c2)cc1 [Example 277, N-((1R,2R)-1-(3-chloro-4-cyclopropoxyphenyl)-1-hydroxy-3-(pyrrolidin-1-yl)propan-2-yl)-2-(4-(1-cyclopropyl-1H-indazol-5-yl)phenyl)-2-oxoacetamide] | < 50 nM |
| O=C(N[C@H](CN1CCC1)[C@H](O)c1cc(F)c2c(c1)OCCO2)C(=O)c1ccc(-c2ccc3c(cnn3C3CC3)c2)cc1 [Example 278, N-((1R,2R)-3-(azetidin-1-yl)-1-(8-fluoro-2,3-dihydrobenzo[b][1,4]dioxin-6-yl)-1-hydroxypropan-2-yl)-2-(4-(1-cyclopropyl-1H-indazol-5-yl)phenyl)-2-oxoacetamide] | < 50 nM |
| Cn1ncc2cc(-c3ccc(C(=O)C(=O)N[C@H](CN4CCC4)[C@H](O)c4ccc(OC5CC5)c(Cl)c4)cc3)ccc21 [Example 279, N-((1R,2R)-3-(azetidin-1-yl)-1-(3-chloro-4-cyclopropoxyphenyl)-1-hydroxypropan-2-yl)-2-(4-(1-methyl-1H-indazol-5-yl)phenyl)-2-oxoacetamide] | < 50 nM |
| O=C(N[C@H](CN1CCCC1)[C@H](O)c1cc(F)c2c(c1)OCCO2)C(=O)c1ccc(-c2ccc3cnoc3c2)cc1 [Example 280, 2-(4-(benzo[d]isoxazol-6-yl)phenyl)-N-((1R,2R)-1-(8-fluoro-2,3-dihydrobenzo[b][1,4]dioxin-6-yl)-1-hydroxy-3-(pyrrolidin-1-yl)propan-2-yl)-2-oxoacetamide] | < 50 nM |
| O=C(N[C@H](CN1CCCC1)[C@H](O)c1ccc(OC2CC2)c(Cl)c1)C(=O)c1ccc(-c2ccc3cnn(C4CC4)c3c2)cc1 [Example 281, N-((1R,2R)-1-(3-chloro-4-cyclopropoxyphenyl)-1-hydroxy-3-(pyrrolidin-1-yl)propan-2-yl)-2-(4-(1-cyclopropyl-1H-indazol-6-yl)phenyl)-2-oxoacetamide] | < 50 nM |
| O=C(N[C@H](CN1CCCC1)[C@H](O)c1cc(F)c2c(c1)OCCO2)C(=O)c1ccc(-c2ccc3cnn(C4CC4)c3c2)cc1 [Example 282, 2-(4-(1-cyclopropyl-1H-indazol-6-yl)phenyl)-N-((1R,2R)-1-(8-fluoro-2,3-dihydrobenzo[b][1,4]dioxin-6-yl)-1-hydroxy-3-(pyrrolidin-1-yl)propan-2-yl)-2-oxoacetamide] | < 50 nM |
| O=C(N[C@H](CN1CCC1)[C@H](O)c1cc(F)c2c(c1)OCCO2)C(=O)c1ccc(-c2ccc3cnn(C4CC4)c3c2)cc1 [Example 283, N-((1R,2R)-3-(azetidin-1-yl)-1-(8-fluoro-2,3-dihydrobenzo[b][1,4]dioxin-6-yl)-1-hydroxypropan-2-yl)-2-(4-(1-cyclopropyl-1H-indazol-6-yl)phenyl)-2-oxoacetamide] | < 50 nM |
| O=C(N[C@H](CN1CCCC1)[C@H](O)c1ccc(OC2CC2)c(Cl)c1)C(=O)c1ccc(-c2ccc3cn(C4CC4)nc3c2)cc1 [Example 284, N-((1R,2R)-1-(3-chloro-4-cyclopropoxyphenyl)-1-hydroxy-3-(pyrrolidin-1-yl)propan-2-yl)-2-(4-(2-cyclopropyl-2H-indazol-6-yl)phenyl)-2-oxoacetamide] | < 50 nM |
| O=C(N[C@H](CN1CCC1)[C@H](O)c1cc(Cl)c2c(c1)OCCO2)C(=O)c1ccc(-c2ccc3c(cnn3C3CC3)c2)cc1 [Example 285, N-((1R,2R)-3-(azetidin-1-yl)-1-(8-chloro-2,3-dihydrobenzo[b][1,4]dioxin-6-yl)-1-hydroxypropan-2-yl)-2-(4-(1-cyclopropyl-1H-indazol-5-yl)phenyl)-2-oxoacetamide] | < 50 nM |
| O=C(N[C@H](CN1CCCC1)[C@H](O)c1cc2c(c(C(F)(F)F)c1)OCCO2)C(=O)c1ccc(-c2ccc(F)cc2)cc1 [Example 286, 2-(4′-fluoro-[1,1′-biphenyl]-4-yl)-N-((1R,2R)-1-hydroxy-3-(pyrrolidin-1-yl)-1-(8-(trifluoromethyl)-2,3-dihydrobenzo[b][1,4]dioxin-6-yl)propan-2-yl)-2-oxoacetamide] | 50 to 5000 nM |
| O=C(N[C@H](CN1CCCC1)[C@H](O)c1ccc(OC2CC2)c(Cl)c1)C(=O)c1ccc(-c2ccc(F)cc2)nc1 [Example 287, N-((1R,2R)-1-(3-chloro-4-cyclopropoxyphenyl)-1-hydroxy-3-(pyrrolidin-1-yl)propan-2-yl)-2-(6-(4-fluorophenyl)pyridin-3-yl)-2-oxoacetamide] | < 50 nM |
| O=C(N[C@H](CN1CCCC1)[C@H](O)c1ccc(OC2CC2)c(Cl)c1)C(=O)c1ccc2c(cnn2Cc2ccc(F)cc2)c1 [Example 288, N-((1R,2R)-1-(3-chloro-4-cyclopropoxyphenyl)-1-hydroxy-3-(pyrrolidin-1-yl)propan-2-yl)-2-(1-(4-fluorobenzyl)-1H-indazol-5-yl)-2-oxoacetamide] | < 50 nM |
| O=C(N[C@H](CN1CCCC1)[C@H](O)c1cc(F)c2c(c1)OCCO2)C(=O)c1ccc2c(cnn2Cc2ccc(F)cc2)c1 [Example 289, N-((1R,2R)-1-(8-fluoro-2,3-dihydrobenzo[b][1,4]dioxin-6-yl)-1-hydroxy-3-(pyrrolidin-1-yl)propan-2-yl)-2-(1-(4-fluorobenzyl)-1H-indazol-5-yl)-2-oxoacetamide] | < 50 nM |
| O=C(N[C@H](CN1CCCC1)[C@H](O)c1cc(F)c2c(c1)OCCO2)C(=O)c1ccc(-c2ccc3oncc3c2)cc1 [Example 290, 2-(4-(benzo[d]isoxazol-5-yl)phenyl)-N-((1R,2R)-1-(8-fluoro-2,3-dihydrobenzo[b][1,4]dioxin-6-yl)-1-hydroxy-3-(pyrrolidin-1-yl)propan-2-yl)-2-oxoacetamide] | < 50 nM |
| CC(C)(C)Oc1ccc([C@@H](O)[C@@H](CN2CCCC2)NC(=O)C(=O)c2ccc(-c3ccc(F)cc3)cc2)cc1Cl [Example 291, N-((1R,2R)-1-(4-(tert-butoxy)-3-chlorophenyl)-1-hydroxy-3-(pyrrolidin-1-yl)propan-2-yl)-2-(4′-fluoro-[1,1′-biphenyl]-4-yl)-2-oxoacetamide] | 50 to 5000 nM |
| O=C(N[C@H](CN1CCCC1)[C@H](O)c1ccc(OC2CC2)c(F)c1)C(=O)c1cc2ccc(Cl)cc2s1 [Example 292, 2-(6-chlorobenzo[b]thiophen-2-yl)-N-((1R,2R)-1-(4-cyclopropoxy-3-fluorophenyl)-1-hydroxy-3-(pyrrolidin-1-yl)propan-2-yl)-2-oxoacetamide] | < 50 nM |
| CC(C)(C)c1ccc(-c2ccc(C(=O)C(=O)N[C@H](CN3CCC3)[C@H](O)c3cc(F)c4c(c3)OCCO4)cc2)cc1 [Example 293, N-((1R,2R)-3-(azetidin-1-yl)-1-(8-fluoro-2,3-dihydrobenzo[b][1,4]dioxin-6-yl)-1-hydroxypropan-2-yl)-2-(4′-(tert-butyl)-[1,1′-biphenyl]-4-yl)-2-oxoacetamide] | < 50 nM |
| CC(C)(C)c1ccc(-c2ccc(C(=O)C(=O)N[C@H](CN3CCCC3)[C@H](O)c3cc(F)c4c(c3)OCCO4)cc2)cc1 [Example 294, 2-(4′-(tert-butyl)-[1,1′-biphenyl]-4-yl)-N-((1R,2R)-1-(8-fluoro-2,3-dihydrobenzo[b][1,4]dioxin-6-yl)-1-hydroxy-3-(pyrrolidin-1-yl)propan-2-yl)-2-oxoacetamide] | < 50 nM |
| Cc1cc(F)ccc1-c1ccc(C(=O)C(=O)N[C@H](CN2CCCC2)[C@H](O)c2ccc(OC3CC3)c(Cl)c2)cc1 [Example 295, N-((1R,2R)-1-(3-chloro-4-cyclopropoxyphenyl)-1-hydroxy-3-(pyrrolidin-1-yl)propan-2-yl)-2-(4′-fluoro-2′-methyl-[1,1′-biphenyl]-4-yl)-2-oxoacetamide] | 50 to 5000 nM |
| O=C(N[C@H](CN1CCCC1)[C@H](O)c1ccc(OC2CC2)c(Cl)c1)C(=O)c1ccc(-c2ccc3scnc3c2)cc1 [Example 296, 2-(4-(benzo[d]thiazol-5-yl)phenyl)-N-((1R,2R)-1-(3-chloro-4-cyclopropoxyphenyl)-1-hydroxy-3-(pyrrolidin-1-yl)propan-2-yl)-2-oxoacetamide] | < 50 nM |
